Experiments:
[1] = target: T1, Sodium-dependent serotonin transporter (Homo sapiens, UniProt P31645); assay: Binding affinity at serotonin transporter, using [3H]citalopram as radioligand at a concentration of 0.1 uM
Target sequence in this assay (P31645 whole entry, looked up): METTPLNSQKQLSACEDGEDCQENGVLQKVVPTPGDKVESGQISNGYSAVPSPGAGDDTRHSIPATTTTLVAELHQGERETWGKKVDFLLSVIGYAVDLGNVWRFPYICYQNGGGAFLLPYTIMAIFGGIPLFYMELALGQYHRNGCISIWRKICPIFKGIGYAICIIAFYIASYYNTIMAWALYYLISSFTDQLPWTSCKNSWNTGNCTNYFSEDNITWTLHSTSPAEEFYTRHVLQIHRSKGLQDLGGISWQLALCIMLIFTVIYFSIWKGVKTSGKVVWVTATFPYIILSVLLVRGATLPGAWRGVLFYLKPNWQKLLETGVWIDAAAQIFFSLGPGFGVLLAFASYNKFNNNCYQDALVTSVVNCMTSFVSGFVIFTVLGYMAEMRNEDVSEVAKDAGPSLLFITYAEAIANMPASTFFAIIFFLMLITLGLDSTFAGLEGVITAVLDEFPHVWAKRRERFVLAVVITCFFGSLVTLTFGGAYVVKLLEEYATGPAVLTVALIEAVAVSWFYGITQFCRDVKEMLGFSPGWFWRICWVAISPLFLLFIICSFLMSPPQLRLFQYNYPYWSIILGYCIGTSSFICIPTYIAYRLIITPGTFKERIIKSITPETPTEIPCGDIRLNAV

[2] = target: T2, Sodium-dependent noradrenaline transporter (Homo sapiens, UniProt P23975); assay: Inhibition of [3H]nisoxetine binding to norepinephrine transporter; conditions: concentration not given here
[3] = target: T2, Sodium-dependent noradrenaline transporter
Description: Inhibition of [3H]nisoxetine binding to norepinephrine (NE) transporter

[4] = target: T1, Sodium-dependent serotonin transporter
Target sequence in this assay (P31645 whole entry): as the sequence (P31645 whole entry, looked up) above
Description: Binding affinity to serotonin transporter, using [3H]citalopram as radioligand

Rattus norvegicus [5] = species on record: Rattus norvegicus
Description: Inhibition of dopamine uptake into rat synaptosomes

Rattus norvegicus [6] = species on record: Rattus norvegicus; remark: listed apart in the source
Description: Inhibition of norepinephrine uptake into rat synaptosomes

Rattus norvegicus [7] = species on record: Rattus norvegicus; remark: listed apart in the source
Description: Inhibition of serotonin uptake into rat synaptosomes

T2 sequence (P23975 whole entry): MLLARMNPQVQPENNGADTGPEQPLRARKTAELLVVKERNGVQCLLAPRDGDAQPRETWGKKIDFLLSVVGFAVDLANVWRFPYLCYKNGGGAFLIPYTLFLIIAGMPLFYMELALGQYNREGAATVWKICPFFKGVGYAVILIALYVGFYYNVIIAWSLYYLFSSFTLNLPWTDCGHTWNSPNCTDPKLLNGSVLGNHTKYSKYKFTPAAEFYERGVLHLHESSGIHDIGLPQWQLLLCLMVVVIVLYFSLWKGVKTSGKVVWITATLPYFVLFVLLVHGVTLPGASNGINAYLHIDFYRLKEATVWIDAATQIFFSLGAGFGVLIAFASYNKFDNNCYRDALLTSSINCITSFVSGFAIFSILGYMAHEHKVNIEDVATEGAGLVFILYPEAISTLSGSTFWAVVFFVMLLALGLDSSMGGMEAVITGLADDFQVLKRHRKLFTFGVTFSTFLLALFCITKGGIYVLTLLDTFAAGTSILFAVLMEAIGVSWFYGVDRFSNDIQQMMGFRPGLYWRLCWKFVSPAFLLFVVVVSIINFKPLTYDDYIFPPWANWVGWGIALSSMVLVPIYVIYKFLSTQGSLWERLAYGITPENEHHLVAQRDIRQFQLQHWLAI

SMILES	inhibition [2]	Ki [3]	Ki [4]	also measured
CNCCCOc1ccc2ccccc2c1	39%	–	–	inhibition [1]: 23%
CNCCOc1cccc2ccccc12	17%	–	–	inhibition [1]: 2%
CNCCC(Oc1cccc2ccccc12)c1ccc(C)cc1 (centres undefined)	–	36 nM	2.1 nM	–
CNCCCCOc1ccc2ccccc2c1	17%	–	–	inhibition [1]: 32%
CNCCC(Oc1cccc2ccccc12)c1ccccc1OC (centres undefined)	56%	–	2.3 nM	–
CNCCC(Oc1cccc2ccccc12)c1ccc(Br)cc1 (centres undefined)	–	160 nM	4.1 nM	–
CNCCC(Oc1cccc2ccccc12)c1ccc(OC)cc1 (centres undefined)	–	74 nM	3.5 nM	–
CNCCC(Oc1cccc2ccccc12)c1ccco1 (centres undefined)	–	20 nM	0.7 nM	–
CNCCC(Oc1cccc2ccccc12)c1cccc(C)c1 (centres undefined)	–	40 nM	4 nM	–
CNCCC(Oc1cccc2ccccc12)c1ccccc1C (centres undefined)	–	110 nM	2 nM	–
CNCCC(Oc1cccc2ccccc12)c1ccc(Cl)cc1 (centres undefined)	–	78 nM	3.8 nM	–
CNCCC(Oc1cccc2ccccc12)c1ccccc1 (centres undefined)	–	20 nM	2.4 nM	–
CNCCC(Oc1cccc2ccccc12)c1ccsc1 (centres undefined)	–	21 nM	1.1 nM	–
CNCC[C@@H](Oc1ccccc1C)c1ccccc1 [ATOMOXETINE]	–	–	–	Ki (Rattus norvegicus [5]): 2000 nM; Ki (Rattus norvegicus [6]): 4 nM; Ki (Rattus norvegicus [7]): 1500 nM
CNCCC(Oc1cccc2ccccc12)c1ccc(C(F)(F)F)cc1 (centres undefined)	55%	–	14.5 nM	–
CNCCC(Oc1cccc2ccccc12)c1ccccc1C(F)(F)F (centres undefined)	38%	–	10 nM	–
CNCCC(Oc1cccc2ccccc12)c1cccc(C(F)(F)F)c1 (centres undefined)	–	70 nM	19 nM	–
CNCCCCCOc1cccc2ccccc12	23%	–	–	inhibition [1]: 35.5%
CNCCC(Oc1cccc2ccccc12)c1cccc(OC)c1 (centres undefined)	–	81 nM	2.2 nM	–
CNCCCOc1cccc2ccccc12	25%	–	75 nM	–
CNCCC(Oc1cccc2ccccc12)c1nccs1 (centres undefined)	–	55 nM	6.4 nM	–
CNCCC(Oc1cccc2ccccc12)c1ccc(F)cc1 (centres undefined)	–	42 nM	0.95 nM	–
CNCCC(Oc1cccc2ccccc12)c1cccc(Br)c1 (centres undefined)	–	67 nM	7.6 nM	–
CNCCCCOc1cccc2ccccc12	25.5%	–	31 nM	–
